Results taken from patent publication US20240158392A1 (Janssen Biotech, Inc., priority 2021, published 2024).

Molecular target: SIK2 (Homo sapiens, UniProt Q9H0K1)
Assay: SIK2 Enzymatic Assay Version 1 (ADP Glo)
Type: biochemical
Settings: enzyme 0.6 nM, 160 μM ATP and 140 μM HDAC5tide (each 2× final concentration); 30 minutes pre-incubation, 4 hours; ADPGlo luminescence; read-out: SIK2 ADP Glo IC50 (μM) (Test Example 1)
Protocol: All steps were performed at room temperature. Compounds were pre-plated onto an assay plate using an Echo acoustic dispenser (Labcyte, E550 or E555) at 20 nL per well. Enzyme prepared in Assay Buffer at 0.6 nM (2× final concentration) was added at 2 μL per well using the Multidrop Combi (Thermo Fisher—used for all additions in this assay) to the assay plate, spun for 1 min at 800-850 rpm (Allegra 6KR Beckman Coulter centrifuge), and incubated with compound for 30 minutes.
One column of wells was dedicated to a no-peptide negative control (containing only ATP). ADPGlo Reagent (prepared and aliquoted as per manufacturer instructions) was then added at 2 μL per well, spun and incubated for 40 min. ADPGlo Detection (prepared and aliquoted as per manufacturer instructions) was added at 2 μL per well to the assay plate, which was spun and incubated for at least 30 min. The plate was then read on the Pherastar (BMG Labtech) using a luminescence read. Gain was set by the 0.1 mM concentration of ADP wells in the ADP/ATP standard curve plate generated as per manufacturer instructions.

SIK2, sequence (Q9H0K1 whole entry, species assumed): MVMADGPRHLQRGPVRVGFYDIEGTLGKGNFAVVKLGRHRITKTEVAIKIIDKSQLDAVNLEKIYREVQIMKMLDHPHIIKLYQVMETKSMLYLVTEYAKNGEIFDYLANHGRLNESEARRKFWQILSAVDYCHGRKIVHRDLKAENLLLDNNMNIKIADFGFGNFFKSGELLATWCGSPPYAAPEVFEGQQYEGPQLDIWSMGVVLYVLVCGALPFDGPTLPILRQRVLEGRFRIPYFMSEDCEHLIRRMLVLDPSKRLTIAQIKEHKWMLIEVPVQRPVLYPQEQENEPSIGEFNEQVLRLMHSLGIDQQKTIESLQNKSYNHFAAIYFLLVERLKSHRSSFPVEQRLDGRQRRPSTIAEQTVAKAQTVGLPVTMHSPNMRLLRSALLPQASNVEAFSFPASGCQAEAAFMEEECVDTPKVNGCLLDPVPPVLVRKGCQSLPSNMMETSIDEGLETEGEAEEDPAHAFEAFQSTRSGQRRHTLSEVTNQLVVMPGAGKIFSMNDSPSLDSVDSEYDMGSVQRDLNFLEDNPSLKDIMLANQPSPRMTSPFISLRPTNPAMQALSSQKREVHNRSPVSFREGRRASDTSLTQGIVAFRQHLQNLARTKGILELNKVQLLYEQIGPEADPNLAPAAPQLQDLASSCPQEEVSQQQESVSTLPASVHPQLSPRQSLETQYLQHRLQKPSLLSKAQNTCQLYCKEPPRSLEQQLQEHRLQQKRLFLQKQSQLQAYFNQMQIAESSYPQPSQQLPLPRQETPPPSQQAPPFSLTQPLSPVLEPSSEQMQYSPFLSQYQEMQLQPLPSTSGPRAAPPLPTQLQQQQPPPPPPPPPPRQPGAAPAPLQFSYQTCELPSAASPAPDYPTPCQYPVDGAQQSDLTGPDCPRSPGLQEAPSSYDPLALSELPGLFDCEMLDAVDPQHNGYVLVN

Row | SMILES | IC50
1 | N#Cc1cc(-c2ccn3nc(NC(=O)C4CC4)cc3c2)c(NC2CC2)cn1 [Example 80, N-[5-[2-cyano-5-(cyclopropylamino)-4-pyridyl]pyrazolo[1,5-a]pyridin-2-yl]cyclopropanecarboxamide] | 0.0703 µM
2 | N#Cc1cc(-c2ccn3nc(NC(=O)C4CC4)cc3c2)c(OC2(C(F)(F)F)CCNCC2)cn1 [Example 9, N-(5-(2-cyano-5-((4-(trifluoromethyl)piperidin-4-yl)oxy)pyridin-4-yl)pyrazolo[1,5-a]pyridin-2-yl)cyclopropanecarboxamide] | 0.152 µM
3 | CNC(=O)C1CN(c2cnc(C#N)cc2-c2ccn3nc(NC(=O)C4CC4)cc3c2)C1 [Example 73, 1-[6-cyano-4-[2-(cyclopropanecarbonylamino)pyrazolo[1,5-a]pyridin-5-yl]-3-pyridyl]-N-methyl-azetidine-3-carboxamide] | 0.0846 µM
4 | COc1cc(C)ccc1-c1ccn2nc(NC(=O)C3CC3)cc2c1 [Example 745, N-[5-(2-methoxy-4-methyl-phenyl)pyrazolo[1,5-a]pyridin-2-yl]cyclopropanecarboxamide] | 3.52 µM
5 | COc1ccccc1-c1ccn2nc(NC(=O)C3CC3)cc2c1 [Example 742, N-[5-(2-methoxyphenyl)pyrazolo[1,5-a]pyridin-2-yl]cyclopropanecarboxamide] | 0.417 µM
6 | N#Cc1cc(-c2ccn3nc(NC(=O)C4CC4)cc3c2)c(OC[C@@H]2CC[C@@H](N)C2)cn1 [Example 22, N-[5-[5-[[(1R,3R)-3-aminocyclopentyl]methoxy]-2-cyano-4-pyridyl]pyrazolo[1,5-a]pyridin-2-yl]cyclopropanecarboxamide] | 0.00121 µM
7 | CC(C)(C)OC(=O)COc1cnc(C#N)cc1-c1ccn2nc(NC(=O)C3CC3)cc2c1 [Example 55, tert-butyl 2-[[6-Cyano-4-[2-(cyclopropanecarbonylamino)pyrazolo[1,5-a]pyridin-5-yl]-3-pyridyl]oxy]acetate] | 0.0096 µM
8 | COc1cccnc1-c1ccn2nc(NC(=O)C3CC3)cc2c1 [Example 750, N-[5-(3-methoxy-2-pyridyl)pyrazolo[1,5-a]pyridin-2-yl]cyclopropanecarboxamide] | 0.45 µM

Further compounds by falling IC50, results first:

Row | IC50 | SMILES
9 | 0.389 µM | Cn1cc(Nc2cnc(C#N)cc2-c2ccn3nc(NC(=O)C4CC4)cc3c2)cn1 [Example 79, N-[5-[2-cyano-5-[(1-methylpyrazol-4-yl)amino]-4-pyridyl]pyrazolo[1,5-a]pyridin-2-yl]cyclopropanecarboxamide]
10 | 0.118 µM | N#Cc1cc(-c2ccn3nc(NC(=O)C4CC4)cc3c2)c(N2CCC(O)(C(F)(F)F)C2)cn1 (racemic) [Example 87, (rac-)-N-[5-[2-cyano-5-[3-hydroxy-3-(trifluoromethyl)pyrrolidin-1-yl]-4-pyridyl]pyrazolo[1,5-a]pyridin-2-yl]cyclopropanecarboxamide]
11 | 0.0965 µM | COc1ncccc1-c1ccn2nc(NC(=O)C3CC3)cc2c1 [Example 748, N-[5-(2-methoxy-3-pyridyl)pyrazolo[1,5-a]pyridin-2-yl]cyclopropanecarboxamide]
12 | 0.0577 µM | CN1CC[C@H](CNc2cnc(C#N)cc2-c2ccn3nc(NC(=O)C4CC4)cc3c2)C1 [Example 71, N-[5-[2-cyano-5-[[(3R)-1-methylpyrrolidin-3-yl]methylamino]-4-pyridyl]pyrazolo[1,5-a]pyridin-2-yl]cyclopropanecarboxamide]
13 | 0.0117 µM | Cc1cc(-c2ccn3nc(Nc4ccc(C(=O)NC5CC5)c(F)c4)cc3c2)c(OCC(C)(C)O)cn1 [Example 615, N-cyclopropyl-2-fluoro-4-[[5-[5-(2-hydroxy-2-methyl-propoxy)-2-methyl-4-pyridyl]pyrazolo[1,5-a]pyridin-2-yl]amino]benzamide]
14 | 0.00145 µM | N#Cc1cc(-c2ccn3nc(NC(=O)C4CC4)cc3c2)c(O[C@@H]2CCN(C3CC3)C2)cn1 [Example 25, N-[5-[2-cyano-5-[(3R)-1-cyclopropylpyrrolidin-3-yl]oxy-4-pyridyl]pyrazolo[1,5-a]pyridin-2-yl]cyclopropanecarboxamide]
